Data on 17 compounds can be found in patent US20250368633A1, “AZEPINE FUSED RING COMPOUND AS RIPK1 INHIBITOR AND USE THEREOF” (ARTIVILA BIOPHARMA, priority 2022, published 2025).

Experiment [1] has as its system U937 cells. Kind of experiment: Inhibition rate of compound (1 μM) on necroptosis of U937 cells (TSZ-induced, CellTiter-Glo). The experiment is classed as cell-based. Conditions: TSZ (hTNF-α, SM-164, Z-VAD-FMK) 20 hours. In a few lines:
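Percent inhibition comes from ATP luminescence (CellTiter-Glo), referenced to wells without TSZ and wells with TSZ alone. The compound was added to U937 cells 15 min ahead of a TNF-α/SM-164/Z-VAD-FMK mix, followed by 20 h culture at 37° C, 5% CO2.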
(In general: Cellular ATP, detected with luciferase, serves as a proxy for viable cell number.)

Experiment [2] concerns U937 cells. Kind of experiment: EC50 of necroptosis inhibition in U937 cells (TSZ-induced, CellTiter-Glo). The class given is cell-based. Conditions: Homo sapiens, U-937; TSZ (hTNF-α, SM-164, Z-VAD-FMK) 20 hours; 10 concentration points; read-out: EC50 intervals of necroptosis inhibition in U937 cells. In a few lines: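 Luminescent ATP readout (CellTiter-Glo) after 20 h gave viability of TSZ-challenged U937 cells; compounds were added 15 min ahead of TNF-α/SM-164/Z-VAD-FMK. EC50 derived by variable-slope nonlinear regression of inhibition relative to no-TSZ and TSZ-alone controls.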

For experiment [3], the target named is T1, RIPK1 kinase (Homo sapiens, UniProt Q13546).
T1 construct: purchased Promega VA7593
T1 sequence (Q13546 1-671): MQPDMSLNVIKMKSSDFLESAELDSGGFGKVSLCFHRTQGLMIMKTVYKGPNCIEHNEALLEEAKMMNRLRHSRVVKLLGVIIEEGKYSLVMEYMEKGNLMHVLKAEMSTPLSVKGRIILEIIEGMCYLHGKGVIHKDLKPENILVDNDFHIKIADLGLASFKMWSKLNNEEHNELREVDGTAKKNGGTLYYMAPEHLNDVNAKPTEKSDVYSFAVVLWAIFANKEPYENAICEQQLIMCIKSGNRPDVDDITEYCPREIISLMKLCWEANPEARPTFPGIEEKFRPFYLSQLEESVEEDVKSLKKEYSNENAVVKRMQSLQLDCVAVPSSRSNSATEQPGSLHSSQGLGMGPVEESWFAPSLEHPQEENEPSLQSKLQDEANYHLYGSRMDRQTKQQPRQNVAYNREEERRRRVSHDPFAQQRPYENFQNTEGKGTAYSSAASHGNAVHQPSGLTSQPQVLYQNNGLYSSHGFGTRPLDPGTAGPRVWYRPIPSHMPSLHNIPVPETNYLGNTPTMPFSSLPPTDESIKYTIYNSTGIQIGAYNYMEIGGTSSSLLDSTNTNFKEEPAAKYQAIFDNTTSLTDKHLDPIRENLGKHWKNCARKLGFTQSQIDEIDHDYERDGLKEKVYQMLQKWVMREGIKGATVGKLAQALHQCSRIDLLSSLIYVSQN
Kind of experiment: In vitro RIPK1 kinase activity assay (ADP-Glo), inhibition by compounds at 1 μM. The experiment is classed as biochemical. Conditions: compound 1 μM; ATP 10 μM; MBP substrate 100 μg/mL; read-out: RIPK1 kinase activity inhibition rate range. In a few lines: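 Read by ADP-Glo chemiluminescence as percent inhibition: RIPK1 kinase, 15-min room-temperature compound preincubation, then 1-h reaction with MBP (100 μg/mL final) and ATP (10 μM final). Enzyme level was set by titration.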
For orientation: ADP-Glo first removes unused ATP, then detects ADP through luciferase.

The structures appear in SMILES notation.

For the compound `CN1C(=O)[C@H](NC(=O)C(=O)NCCc2ccccc2)COc2ccc(Br)cc21` [Example 71, (R)—N^1-(7-bromo-5-methyl-4-oxo-2,3,4,5-tetrahydrobenzo[b][1,4]oxazepin-3-yl)-N^2-phenethyloxalamide], the “Inhibition rate range of compounds (1 μM) on U937 cell necroptosis” value (“Inhibition rate range of compounds” for short) in experiment [1] was “B (B: 50-89%)”. The concentration for a half-maximal effect (EC50) in experiment [2] lay within 500 to 2000 nM. Also, the inhibition at 1 µM in experiment [3] fell in the range of 50 to 74%.

In the case of `CN1C(=O)[C@@H](NC(=O)C(=O)NCCc2ccccc2)COc2ccc(C#CCn3ccnc3)cc21` [Example 72, (S)—N^1-(7-(3-(1H-imidazol-1-yl)prop-1-yn-1-yl)-5-methyl-4-oxo-2,3,4,5-tetrahydrobenzo[b][1,4]oxazepin-3-yl)-N^2-phenethyloxalamide], the “Inhibition rate range of compounds” value in experiment [1] is “A (A: ≥90%)”. In experiment [2], the concentration for a half-maximal effect (EC50) is less than 100 nM. For the same compound, the inhibition at 1 µM in experiment [3] was not below 75%.

With `CN1CCC(C#Cc2ccc3c(c2)N(C)C(=O)[C@@H](NC(=O)C(=O)NCCc2ccccc2)CO3)CC1` [Example 73, (S)—N^1-(5-methyl-7-((1-methylpiperidin-4-yl)ethynyl)-4-oxo-2,3,4,5-tetrahydrobenzo[b][1,4]oxazepin-3-yl)-N^2-phenethyloxalamide], the “Inhibition rate range of compounds” value in experiment [1] was “A (A: ≥90%)”. Besides, the concentration for a half-maximal effect (EC50) in experiment [2] was less than 100 nM. In addition, the inhibition at 1 µM in experiment [3] is not below 75%.

Turning to `CN(C)c1ccc(C#Cc2ccc3c(c2)N(C)C(=O)[C@@H](NC(=O)C(=O)NCCc2ccccc2)CO3)cc1` [Example 75, (S)—N^1-(7-((4-(dimethylamino)phenyl)ethynyl)-5-methyl-4-oxo-2,3,4,5-tetrahydrobenzo[b][1,4]oxazepin-3-yl)-N^2-phenethyloxalamide], the “Inhibition rate range of compounds” value in experiment [1] was “A (A: ≥90%)”. Besides, in experiment [2], the half-maximal effective concentration (EC50) is less than 100 nM. The inhibition at 1 µM in experiment [3] was in the range of 25 to 49%.

Consider `CN1C(=O)[C@@H](NC(=O)C(=O)NCCc2ccccc2)COc2ccc(C#CCN3CCN(CCO)CC3)cc21` [Example 83, (S)—N^1-(7-(3-(4-(2-hydroxyethyl)piperazin-1-yl)prop-1-yn-1-yl)-5-methyl-4-oxo-2,3,4,5-tetrahydrobenzo[b][1,4]oxazepin-3-yl)-N^2-phenethyloxalamide], for which the “Inhibition rate range of compounds” value in experiment [1] is on record as “A (A: ≥90%)”. For the same compound, the half-maximal effective concentration (EC50) in experiment [2] was less than 100 nM. The inhibition at 1 µM in experiment [3] was not below 75%.

In the case of `CN1C(=O)[C@@H](NC(=O)C(=O)NCCc2ccccc2)COc2ccc(C#CCN)cc21.Cl` [Example 87, (S)—N^1-(7-(3-aminoprop-1-yn-1-yl)-5-methyl-4-oxo-2,3,4,5-tetrahydrobenzo[b][1,4]oxazepin-3-yl)-N^2-phenethyloxalamide hydrochloride], the “Inhibition rate range of compounds” value in experiment [1] is listed as “B (B: 50-89%)”. Besides, the EC50 in experiment [2] lay within 500 to 2000 nM. Also, the inhibition at 1 µM in experiment [3] lay in the range of 25 to 49%.

On to `CC(=O)N1CC(O)(C#Cc2ccc3c(c2)N(C)C(=O)[C@@H](NC(=O)C(=O)NCCc2ccccc2)CO3)C1` [Example 93, (S)—N^1-(7-((1-acetyl-3-hydroxyazetidin-3-yl)ethynyl)-5-methyl-4-oxo-2,3,4,5-tetrahydrobenzo[b][1,4]oxazepin-3-yl)-N^2-phenethyloxalamide], for which the “Inhibition rate range of compounds” value in experiment [1] is listed as “A (A: ≥90%)”. Further, the EC50 in experiment [2] lay in the range of 100 to 500 nM. Also, in experiment [3], the inhibition at 1 µM was not below 75%.

With `CN1C(=O)[C@@H](NC(=O)C(=O)NCCc2ccccc2)COc2ccc(C#CCCC(=O)O)cc21` [Example 95, (S)-5-(5-methyl-4-oxo-3-(2-oxo-2-(phenethylamino)acetamido)-2,3,4,5-tetrahydrobenzo[b][1,4]oxazepin-7-yl) pent-4-ynoic acid], in experiment [1], the “Inhibition rate range of compounds” value was “B (B: 50-89%)”. Besides, in experiment [2], the EC50 was in the range of 500 to 2000 nM. In experiment [3], the inhibition at 1 µM is not below 75%.

In the case of `CN1C(=O)[C@@H](NC(=O)C(=O)NCCc2cccc(F)c2)COc2ccccc21` [Example 100, (S)—N^1-(3-fluorophenethyl)-N^2-(5-methyl-4-oxo-2,3,4,5-tetrahydrobenzo[b][1,4]oxazepin-3-yl)oxamalide], in experiment [1], the “Inhibition rate range of compounds” value was “B (B: 50-89%)”. The concentration for a half-maximal effect (EC50) in experiment [2] is 100 to 500 nM. Besides, the inhibition at 1 µM in experiment [3] was not below 75%.

Take `CN1C(=O)[C@@H](NC(=O)C(=O)NCc2cc(F)cc(F)c2)COc2ccccc21` [Example 102, (S)—N^1-(3,5-difluorobenzyl)-N^2-(5-methyl-4-oxo-2,3,4,5-tetrahydrobenzo[b][1,4]oxazepin-3-yl)oxalamide]: the “Inhibition rate range of compounds” value in experiment [1] is “B (B: 50-89%)”. In addition, the EC50 in experiment [2] lay within 500 to 2000 nM. In addition, the inhibition at 1 µM in experiment [3] lay within 25 to 49%.

`CN1C(=O)[C@@H](NC(=O)C(=O)NCc2ccccc2)COc2ccc(C#CCN3CCC(O)CC3)cc21` [Example 105, (S)—N^1-benzyl-N^2-(7-(3-(4-hydroxypiperidin-1-yl)prop-1-yn-1-yl)-5-methyl-4-oxo-2,3,4,5-tetrahydrobenzo[b][1,4]oxazepin-3-yl)oxalamide]: the “Inhibition rate range of compounds” value in experiment [1] is recorded as “A (A: ≥90%)”. For the same compound, in experiment [2], the concentration giving a half-maximal response (EC50) was less than 100 nM. The inhibition at 1 µM in experiment [3] is not below 75%.

As to `Cc1ccccc1CNC(=O)C(=O)N[C@H]1COc2ccc(C#CCN3CCNC(=O)C3)cc2N(C)C1=O` [Example 108, (S)—N^1-(5-methyl-4-oxo-7-(3-(3-oxopiperazin-1-yl)prop-1-yn-1-yl)-2,3,4,5-tetrahydrobenzo[b][1, 4]oxazepin-3-yl)-N^2-(2-methylbenzyl)oxalamide], the “Inhibition rate range of compounds” value in experiment [1] was “A (A: ≥90%)”. The half-maximal effective concentration (EC50) in experiment [2] was less than 100 nM. Besides, in experiment [3], the inhibition at 1 µM was not below 75%.

Turning to `CN1C(=O)[C@@H](NC(=O)C(=O)NCCc2cccc(F)c2)COc2ccc(C#CC3CCCNC3)cc21` (stereo partly drawn) [Example 116, N^1-(3-fluorophenethyl)-N^2-((3S)-5-methyl-4-oxo-7-(piperidin-3-ylethynyl)-2,3,4,5-tetrahydrobenzo[b][1,4]oxazepin-3-yl)oxalamide], in experiment [1], the “Inhibition rate range of compounds” value is given as “A (A: ≥90%)”. Also, the EC50 in experiment [2] fell in the range of 100 to 500 nM. Moreover, the inhibition at 1 µM in experiment [3] is 50 to 74%.

In the case of `CN1C(=O)[C@@H](NC(=O)C(=O)NCCc2cccc(F)c2)COc2ccc(C#CCN3CCC(=O)C3)cc21` [Example 119, (S)—N^1-(3-fluorophenethyl)-N^2-(5-methyl-4-oxo-7-(3-(3-oxopyrrolidin-1-yl)prop-1-yn-1-yl)-2,3,4,5-tetrahydrobenzo[b][1,4]oxazepin-3-yl)oxalamide], the “Inhibition rate range of compounds” value in experiment [1] was “A (A: ≥90%)”. Further, the concentration for a half-maximal effect (EC50) in experiment [2] is less than 100 nM. Further, in experiment [3], the inhibition at 1 µM was in the range of 25 to 49%.

Regarding `CN1C(=O)[C@@H](NC(=O)C(=O)NCCc2cccc(F)c2)COc2ccc(C#CCN3CCN(CCO)CC3)cc21` [Example 121, (S)—N^1-(3-fluorophenethyl)-N^2-(7-(3-(4-(2-hydroxyethyl)piperazin-1-yl)prop-1-yn-1-yl)-5-methyl-4-oxo-2,3,4,5-tetrahydrobenzo[b][1,4]oxazepin-3-yl)oxalamide], the “Inhibition rate range of compounds” value in experiment [1] is “B (B: 50-89%)”. For the same compound, the EC50 in experiment [2] was less than 100 nM. The inhibition at 1 µM in experiment [3] is not below 75%.

For the compound `C[C@H](NC(=O)C(=O)N[C@H]1COc2ccc(C#CCCO)cc2N(C)C1=O)c1ccccc1` [Example 124, N^1-((S)-7-(4-hydroxybut-1-yn-1-yl)-5-methyl-4-oxo-2,3,4,5-tetrahydrobenzo[b][1,4]oxazepin-3-yl)-N^2-((S)-1-phenylethyl)oxalamide], the “Inhibition rate range of compounds” value in experiment [1] is recorded as “A (A: ≥90%)”. In addition, the concentration giving a half-maximal response (EC50) in experiment [2] is 100 to 500 nM. The inhibition at 1 µM in experiment [3] lay in the range of 50 to 74%.

As to `C[C@@H](NC(=O)C(=O)N[C@H]1COc2ccc(C#CC3COC3)cc2N(C)C1=O)c1ccccc1` [Example 131, (S)—N^1-(5-methyl-7-(oxetan-3-ylethynyl)-4-oxo-2,3,4,5-tetrahydrobenzo[b][1,4]oxazepin-3-yl)-N^2-((R)-1-phenylethyl)oxalamide], the “Inhibition rate range of compounds” value in experiment [1] is “A (A: ≥90%)”. Further, the EC50 in experiment [2] is less than 100 nM. Besides, in experiment [3], the inhibition at 1 µM was not below 75%.

As a reminder, the EC50 is the concentration at which the effect is half-maximal. The inhibition is the share of the control response that was lost under treatment.
